Measured values from patent publication US20090022806A1, “Nanoparticle and polymer formulations for thyroid hormone analogs, antagonists and formulations and uses thereof” (priority 2006, published 2009).
In brackets after ≈: the same amount, converted by molar mass.

Assays:
Solubility = type: physicochemical; details: in water after preparing a solution at 10^−1 M in DMSO
Experimental: Yield: 50%; off-white solid; recrist. solvt.: EtOH; TLC: Rf=0.43 (EtOAc/EtOH 9/1); RPTLC: Rf=0.43 (AcOH/H2O 8/2); mp=136° C.; IR (ν cm^−1): 1730 (CO); ^1H NMR (DMSO-d6) δ (ppm): 7.79 (s, 2H, ArH), 7.14 (s, 2H, ArH), 4.06-4.02 (m, 2H, CH2), 3.93-3.89 (q, J=7.0 Hz, 2H, CH2), 3.59-3.56 (t, J=7.0 Hz, 1H, CH), 2.80-2.77 (m, 2H, CH2), 1.88 (br, 1H, NH), 1.41-1.39 (t, J=7.0 Hz, 3H, CH3), 1.15-1.12 (t, J=7.0 Hz, 3H, CH3); MS (ESI+) m/z 911.7 [(M+DMSO)^+, 100], 833.7 [(M+H)+, 75]; Anal. Calcd. for C19H19I4NO4: C, 27.40; H, 2.30; N, 1.68. Found: C, 27.54; H, 1.94; N, 1.66. Solubility 10^−3 M in water after preparing a solution at 10^−1 M in DMSO. It is noteworthy that if a suspension of L-T4 is prepared overnight, the yield can be increased.

[1] = tested on: doxorubicin-resistant MCF7/R cells; assay: Doxorubicin-resistant tumor xenograft in nude mice; details: doxorubicin alone 2 mg/kg, three injections
Experimental: (§1) Strain CD1 nude mice were obtained from Charles River Laboratories (Wilmington, Mass.) at approximately 5-6 weeks of age and weighing approximately 30 g. Animals received s.c. implantation of doxorubicin-resistant MCF7/R cells (10^6 cells in 100 μl). When tumors were approximately 50 mm^3 in size, the animals were pair matched and divided into four groups of five mice as follows: a) vehicle treated controls, b) mice treated with tetrac (30 mg/kg), c) mice treated doxorubicin (2 mg/kg), d) mice treated with the combination of both drugs. A total of three injections (separated by 3 days) were performed. Mice were weighed, checked for clinical signs of drug toxicity and lethality. Tumor measurements were made with a caliper three times weekly for up to 3 weeks and converted to tumor volume by using the formula W×L^2/2. Tumor growth curves were generated.

[2] = Doxorubicin-resistant tumor xenograft in nude mice; details: CD1 nude, mouse, in vivo
Experimental: as §1

NG108-15 cells = assay: cells; details: Homo sapiens, NG108-15, read-out: Half maximal inhibition of cell-cell adhesion
[3] = tested on: EC migration toward the extracellular matrix protein vitronectin; assay: Cellular migration assay toward vitronectin (chemotaxis chamber); type: cell-based; details: Vitronectin 25 ug in lower chamber alone
Experimental: These assays were performed using a Neuroprobe 96 well disposable chemotaxis chamber with an 8 μm pore size. This chamber allowed for quantitation of cellular migration towards a gradient of either vitronectin or osteopontin. Cultured cells were removed following a standardized method using EDTA/Trypsin (0.01%/0.025%). Following removal, the cells were washed twice and resuspended (2×10^6/ml) in EBM (Endothelial cell basal media, Clonetics Inc.). Add either vitronectin or osteopontin (33 μl) at 0.0125-100 μg/ml to the lower wells of a disposable chemotaxis chamber, and then assemble using the preframed filter. The cell suspension (45 μl) was added to a polypropylene plate containing 5 μl of test agent at different concentrations and incubated for 10 minutes at 22° C. Add 25 μl of cell/test agent suspension to the upper filter wells then incubate overnight (22 hours at 37° C.) in a humidified cell culture incubator. After the overnight incubation, non-migrated cells and excess media were gently removed using a 12 channel pipette and a cell scraper. The filters were then washed twice in PBS (no Ca^+2 or Mg^+2) and fixed with 1% formaldehyde. Membranes of migrated cells were permeated with Triton X-100 (0.2%) then washed 2-3 times with PBS. […] Chemotaxis was quantitatively determined by fluorescence detection using a Cytofluor II (530 excitation/590 emission).

## CC(C)(C)OC(=O)NC(Cc1cc(I)c(Oc2cc(I)c(O)c(I)c2)c(I)c1)C(=O)O (stereo not drawn) [PRIAB1, 2-[(tert-butoxycarbonyl)amino]-3-[4-(4-hydroxy-3,5-diiodophenoxy)-3,5-diiodophenyl]propanoic acid]
other
  melting point: 212 °C

## CCNC(Cc1cc(I)c(Oc2cc(I)c(O)c(I)c2)c(I)c1)C(=O)OCC (stereo not drawn) [PRIAB20, ethyl-2-(ethylamino)-3-[4-(4-hydroxy-3,5-diiodophenoxy)-3,5-diiodophenyl]propanoate]
Solubility
  solubility: 1000 µM (≈ 833 µg/mL)

## COc1cccc2c1C(=O)c1c(O)c3c(c(O)c1C2=O)C[C@@](O)(C(=O)CO)C[C@@H]3O[C@H]1C[C@H](N)[C@H](O)[C@H](C)O1 [doxorubicin]
[1]
  effect on tumor growth: no noticeable effect
[2]
  MTD: 2.5 mg/kg

## CCO [ethanol]
NG108-15 cells
  IC50: 5 to 10 mM

B1: Vitronectin: extracellular matrix protein used as migration gradient (protein, UniProt P04004 20-478, looked up)
Vitronectin: DQESCKGRCTEGFNVDKKCQCDELCSYYQSCCTDYTAECKPQVTRGDVFTMPEDEYTVYDDGEEKNNATVHEQVGGPSLTSDLQAQSKGNPEQTPVLKPEEEAPAPEVGASKPEGIDSRPETLHPGRPQPPAEEELCSGKPFDAFTDLKNGSLFAFRGQYCYELDEKAVRPGYPKLIRDVWGIEGPIDAAFTRINCQGKTYLFKGSQYWRFEDGVLDPDYPRNISDGFDGIPDNVDAALALPAHSYSGRERVYFFKGKQYWEYQFQHQPSQEECEGSSLSAVFEHFAMMQRDSWEDIFELLFWGRTSAGTRQPQFISRDWHGVPGQVDAAMAGRIYISGMAPRPSLAKKQRFRHRNRKGYRSQRGHSRGRNQNSRRPSRATWLSLFSSEESNLGANNYDDYRMDWLVPATCEPIQSVFFFSGDKYYRVNLRTRRVDTVDPPYPRSIAQYWLGCPAPGHL
[3]
  Mean EC Migration (Fluorescence Units) + SD: 6,116 ± 185 Fluorescence Units
